Values of other authors, collected in patent US8960128B2, “Topical anesthetic composition” (Animal Ethics Pty Ltd, priority 2005, dated 2015).

Assays:
[1] = sheep, topically applied
[2] = typically up to about; depending on the method of administration

Structure (SMILES) | total dose that should not be exceeded [1] | duration of anesthesia [2]
CCN(CC)CC(=O)Nc1c(C)cccc1C [lignocaine] | ≤ 50 mg/kg | –
CCCCN1CCCCC1C(=O)Nc1c(C)cccc1C (centres unmarked) [bupivacaine] | – | 6 to 12 h
